Assay results published in ChEMBL document CHEMBL1201862, “PubChem BioAssay data set” (2004).
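Five concentrations, 48 hours, 96-well plates. GI50 = concentration required for 50% inhibition of growth.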 Activity calls are given as the source filed them. Rule as the data show it: active = GI50 up to about 1.1 µM and inactive = higher.

Experiments:
Assay in all cases: NCI tumour cell line growth inhibition, 48 h
[1] = system: 786-0
[2] = system: A549
[3] = system: ACHN
[4] = system: BT-549
[5] = system: CCRF-CEM
[6] = system: COLO 205
[7] = system: DU-145
[8] = system: EKVX
[9] = system: HCC 2998
[10] = system: HCT-116
[11] = system: HCT-15
[12] = system: HL-60
[13] = system: HOP-62
[14] = system: HOP-92
[15] = system: HT-29
[16] = system: Hs-578T
[17] = system: IGROV-1
[18] = system: K562
[19] = system: KM12
[20] = system: LOX IMVI
[21] = system: M14
[22] = system: MCF7
[23] = system: MDA-MB-231
[24] = system: MDA-MB-435
[25] = system: MDA-N
[26] = system: MOLT-4
[27] = system: Malme-3M
[28] = system: NCI-H226
[29] = system: NCI-H23
[30] = system: NCI-H460
[31] = system: NCI-H522
[32] = system: NCI/ADR-RES
[33] = system: OVCAR-3
[34] = system: OVCAR-4
[35] = system: OVCAR-5
[36] = system: OVCAR-8
[37] = system: PC-3
[38] = system: RPMI-8226
[39] = system: RXF 393
[40] = system: SF-268
[41] = system: SF-295
[42] = system: SF-539
[43] = system: SK-MEL-28
[44] = system: SK-MEL-2
[45] = system: SK-MEL-5
[46] = system: SK-OV-3
[47] = system: SN12C
[48] = system: SNB-19
[49] = system: SNB-75
[50] = system: SR
[51] = system: SW-620
[52] = system: T47D
[53] = system: TK-10
[54] = system: U-251
[55] = system: UACC-257
[56] = system: UACC-62
[57] = system: UO-31
[58] = system: A498
[59] = system: CAKI-1

CC(=O)N(C)SCC(NC(=O)C(Cc1ccccc1)NC(=O)OCc1ccccc1)C(=O)NC(Cc1ccccc1)C(=O)NC(Cc1cn(C=O)c2ccccc12)C(=O)NC(CCCCNC(=O)OCc1ccccc1)C(=O)NC(C(=O)NC(CSN(C)C(C)=O)C(=O)NO)C(C)OCc1ccccc1 (stereo not given)
GI50 [1]: > 100 µM (inactive)
GI50 [2]: > 100 µM (inactive)
GI50 [3]: > 100 µM (inactive)
GI50 [4]: > 100 µM (inactive)
GI50 [5]: > 100 µM (inactive)
GI50 [6]: > 100 µM (inactive)
GI50 [7]: > 100 µM (inactive)
GI50 [8]: > 100 µM (inactive)
GI50 [9]: > 100 µM (inactive)
GI50 [10]: > 100 µM (inactive)
GI50 [11]: > 100 µM
GI50 [12]: > 100 µM (inactive)
GI50 [13]: > 100 µM (inactive)
GI50 [14]: > 100 µM (inactive)
GI50 [15]: > 100 µM (inactive)
GI50 [16]: > 100 µM (inactive)
GI50 [17]: > 100 µM (inactive)
GI50 [18]: > 100 µM (inactive)
GI50 [19]: > 100 µM (inactive)
GI50 [20]: > 100 µM (inactive)
GI50 [21]: > 100 µM (inactive)
GI50 [22]: > 100 µM (inactive)
GI50 [23]: > 100 µM (inactive)
GI50 [24]: > 100 µM (inactive)
GI50 [25]: > 100 µM (inactive)
GI50 [26]: > 100 µM (inactive)
GI50 [27]: > 100 µM (inactive)
GI50 [28]: > 100 µM (inactive)
GI50 [29]: > 100 µM (inactive)
GI50 [30]: > 100 µM (inactive)
GI50 [31]: > 100 µM (inactive)
GI50 [32]: > 100 µM (inactive)
GI50 [33]: > 100 µM (inactive)
GI50 [34]: > 100 µM (inactive)
GI50 [35]: > 100 µM (inactive)
GI50 [36]: > 100 µM (inactive)
GI50 [37]: > 100 µM (inactive)
GI50 [38]: > 100 µM (inactive)
GI50 [39]: > 100 µM (inactive)
GI50 [40]: > 100 µM (inactive)
GI50 [41]: > 100 µM (inactive)
GI50 [42]: > 100 µM (inactive)
GI50 [43]: > 100 µM (inactive)
GI50 [44]: > 100 µM (inactive)
GI50 [45]: > 100 µM (inactive)
GI50 [46]: > 100 µM (inactive)
GI50 [47]: > 100 µM (inactive)
GI50 [48]: > 100 µM (inactive)
GI50 [49]: > 100 µM (inactive)
GI50 [50]: > 100 µM (inactive)
GI50 [51]: > 100 µM (inactive)
GI50 [52]: > 100 µM (inactive)
GI50 [53]: > 100 µM (inactive)
GI50 [54]: > 100 µM (inactive)
GI50 [55]: > 100 µM (inactive)
GI50 [56]: > 100 µM (inactive)
GI50 [57]: > 100 µM (inactive)

Nc1nc(Cl)cc(NCC2(CO)CCC(OCc3ccccc3)C2)n1 (stereo not given)
GI50 [1]: 35.2 µM (inactive)
GI50 [58]: 8.24 µM (inactive)
GI50 [2]: 15.2 µM (inactive)
GI50 [3]: 5.69 µM (inactive)
GI50 [4]: 13.9 µM (inactive)
GI50 [59]: 8.09 µM (inactive)
GI50 [5]: 14.6 µM (inactive)
GI50 [6]: 21.1 µM (inactive)
GI50 [7]: 27.7 µM (inactive)
GI50 [8]: 10.2 µM (inactive)
GI50 [10]: 16.9 µM (inactive)
GI50 [11]: 15 µM
GI50 [12]: 21.4 µM (inactive)
GI50 [13]: 25.4 µM (inactive)
GI50 [14]: 3.57 µM (inactive)
GI50 [15]: 11.1 µM (inactive)
GI50 [16]: 14.4 µM (inactive)
GI50 [17]: 18.2 µM (inactive)
GI50 [18]: 7.26 µM (inactive)
GI50 [19]: 21 µM (inactive)
GI50 [20]: 2.83 µM (inactive)
GI50 [21]: 20.7 µM (inactive)
GI50 [22]: 1.59 µM (inactive)
GI50 [23]: 7.45 µM (inactive)
GI50 [24]: 14.8 µM (inactive)
GI50 [25]: 16.8 µM (inactive)
GI50 [26]: 4.99 µM (inactive)
GI50 [27]: 20.8 µM (inactive)
GI50 [28]: 14.8 µM (inactive)
GI50 [29]: 0.641 µM (active)
GI50 [30]: 19.3 µM (inactive)
GI50 [31]: 1.31 µM (inactive)
GI50 [32]: 3.81 µM (inactive)
GI50 [33]: 30.5 µM (inactive)
GI50 [34]: 12.1 µM (inactive)
GI50 [35]: 37.7 µM (inactive)
GI50 [36]: 22.1 µM (inactive)
GI50 [37]: 8.24 µM (inactive)
GI50 [38]: 34.4 µM (inactive)
GI50 [39]: 27 µM (inactive)
GI50 [40]: 26.2 µM (inactive)
GI50 [41]: 31 µM (inactive)
GI50 [42]: 29.7 µM (inactive)
GI50 [43]: 19.5 µM (inactive)
GI50 [44]: 21.3 µM (inactive)
GI50 [45]: 2.82 µM (inactive)
GI50 [46]: 11.1 µM (inactive)
GI50 [47]: 8.89 µM (inactive)
GI50 [48]: 23.1 µM (inactive)
GI50 [49]: 12.4 µM (inactive)
GI50 [50]: 4.06 µM (inactive)
GI50 [51]: 60 µM (inactive)
GI50 [52]: 1.39 µM (inactive)
GI50 [53]: 11.2 µM (inactive)
GI50 [54]: 29.9 µM (inactive)
GI50 [55]: 12.8 µM (inactive)
GI50 [56]: 21.4 µM (inactive)
GI50 [57]: 11.3 µM (inactive)
